The NIST ThermoML archive (doi:10.1016/j.jct.2014.02.016)

Key:
[1] = heat capacity at constant pressure per volume; xn = mol fraction of the nth substance listed; settings: 100 kPa, Liquid, DSC Calorimetry, x1 = 0.284
[2] = refractive index (other wavelength) (dimensionless); xn = mol fraction of the nth substance listed; settings: 100 kPa, Liquid, Wavelength=632.8 nm, Angle minimization by sell rotation

CCCCCCCCCCC [undecane] + COC(=O)OC
[1]
Settings	heat capacity [J/K/m3]
293.3 K	2050000
293.4 K	2009000
293.5 K	1982000
293.6 K	1953000
293.8 K	1939000
294 K	1925000
294.5 K	1897000
296 K	1878000
297 K	1848000
298 K	1846000
299 K	1832000
300 K	1824000
301 K	1822000
302 K	1818000
303 K	1818000
304 K	1814000
305 K	1810000
306 K	1806000
307 K	1805000
308 K	1803000
309 K	1801000
310 K	1800000
311 K	1797000
312 K	1796000
313 K	1795000
314 K	1793000
315 K	1792000
316 K	1790000
317 K	1789000
318 K	1788000
319 K	1787000
320.01 K	1787000
321 K	1786000
322 K	1785000
323 K	1784000
324.01 K	1783000
325 K	1782000
326 K	1782000
327 K	1780000
328.01 K	1780000
329 K	1780000
330 K	1779000
331 K	1778000
332 K	1778000
333 K	1777000

[2]
Settings	refractive index
283.01 K, x1 = 0.087	1.3791
283.01 K, x1 = 0.62	1.4074
284.23 K, x1 = 0.094	1.3791
284.23 K, x1 = 0.602	1.4062
285.47 K, x1 = 0.102	1.3791
285.47 K, x1 = 0.58	1.4048
286.63 K, x1 = 0.11	1.3791
286.63 K, x1 = 0.56	1.4035
287.73 K, x1 = 0.118	1.3792
287.73 K, x1 = 0.539	1.4022
288.79 K, x1 = 0.129	1.3795
288.79 K, x1 = 0.515	1.4008
289.51 K, x1 = 0.137	1.3797
289.51 K, x1 = 0.496	1.3997
290.19 K, x1 = 0.147	1.3801
290.19 K, x1 = 0.475	1.3985
290.77 K, x1 = 0.157	1.3805
290.77 K, x1 = 0.46	1.3976
291.19 K, x1 = 0.165	1.3809
291.19 K, x1 = 0.442	1.3966
291.49 K, x1 = 0.173	1.3813
291.49 K, x1 = 0.431	1.396
291.71 K, x1 = 0.179	1.3816
291.71 K, x1 = 0.418	1.3953
291.9 K, x1 = 0.186	1.382
291.9 K, x1 = 0.409	1.3948
292.05 K, x1 = 0.193	1.3824
292.05 K, x1 = 0.398	1.3942
292.17 K, x1 = 0.198	1.3827
292.17 K, x1 = 0.391	1.3938
292.25 K, x1 = 0.202	1.3829
292.25 K, x1 = 0.383	1.3934
292.33 K, x1 = 0.207	1.3832
292.33 K, x1 = 0.376	1.393
292.39 K, x1 = 0.212	1.3835
292.39 K, x1 = 0.371	1.3927
292.44 K, x1 = 0.217	1.3838
292.44 K, x1 = 0.365	1.3924
292.49 K, x1 = 0.22	1.384
292.49 K, x1 = 0.36	1.3921
292.52 K, x1 = 0.225	1.3843
292.52 K, x1 = 0.352	1.3917
292.56 K, x1 = 0.228	1.3845
292.56 K, x1 = 0.349	1.3915
292.59 K, x1 = 0.235	1.3849
292.59 K, x1 = 0.341	1.3911
292.62 K, x1 = 0.238	1.3851
292.62 K, x1 = 0.336	1.3908
292.64 K, x1 = 0.243	1.3854
292.64 K, x1 = 0.331	1.3905
292.65 K, x1 = 0.246	1.3856
292.65 K, x1 = 0.327	1.3903
292.66 K, x1 = 0.251	1.3859
292.66 K, x1 = 0.322	1.39
292.67 K, x1 = 0.255	1.3861
292.67 K, x1 = 0.258	1.3863
292.67 K, x1 = 0.314	1.3896
292.67 K, x1 = 0.318	1.3898
292.68 K, x1 = 0.261	1.3865
292.68 K, x1 = 0.263	1.3866
292.68 K, x1 = 0.266	1.3868
292.68 K, x1 = 0.304	1.389
292.68 K, x1 = 0.307	1.3892
292.68 K, x1 = 0.311	1.3894
303.3 K, x1 = 0.102	1.3708
303.3 K, x1 = 0.2	1.3776
303.3 K, x1 = 0.299	1.3835
303.3 K, x1 = 0.388	1.3891
303.3 K, x1 = 0.5	1.3932
303.3 K, x1 = 0.586	1.3967
303.3 K, x1 = 0.701	1.4014
303.3 K, x1 = 0.793	1.4041
303.3 K, x1 = 0.905	1.4085
